Where a name gives a salt, the structure may show the parent alone.
Tests used:
beagle dogs = test: Antiemetic activity against cisplatin in beagle dogs; format: in vivo; conditions: cisplatin 3 mg/kg i.v., 5 hours
Experimental: Antiemetic activity of test compound against cisplatin was determined in beagle dogs. Dogs are pretreated I.V. with a test compound dissolved in DMSO thirty minutes before administration of cisplatin 3 mg/kg.i.v. with a second dose of compounds given i.v. two hours after cisplatin administration. Emetic episodes are counted for 5 hours following cisplatin administration.
Per cent inhibition of emesis for each animal is determined by the following formula: [formula] A mean per cent inhibition of emesis is determined for at least 4 dogs.

gastric antrum = test: Antral motility in conscious fasted dogs; format: in vivo, Mongrel dogs; conditions: 60 min after injection relative to Phase III of MMC
Experimental: This contractile activity is thought to enhance gastric emptying by more rapidly reducing food particle size for passage through the pylorus.
Mongrel dogs of either sex were surgically implanted with strain gauge force transducers on the gastric antrum at 6 cm, 4 cm and 2 cm from the gastroduodenal junction. The dogs were allowed two weeks to recover and were trained to stand quietly in Pavlov slings.
Dogs were fasted for 18 to 24 hours prior to each experiment to record a pattern of antral contractile activity characteristic of the fasted state called the Migrating Motor Complex (MMC). The period of the MMC cycle is approximately 90 to 120 minutes and consists of 45 to 60 minutes of motor quiescence (Phase I) 30 to 45 minutes of intermittent activity (Phase II) and 10 to 15 minutes of intense contractile activity (Phase III). A control MMC period is recorded prior to compound administration to obtain the length of the quiescent Phase I period. Compound is given intravenously at the end of Phase III of the control MMC cycle and a subsequent Phase I period is examined for the ability of the compound to produce contractions. A response index is calculated as the mean 10 minute motility index for 60 minutes following injection of test compound divided by the 10 minute motility index obtained for the previous Phase III period of the MMC. The response index represents an estimate of the fraction of maximal antral motor activity produced by the compound.

5-HT3 = test: Bezold-Jarisch Reflex test (5-HT induced bradycardia in pentobarbital anesthetized mice); format: in vivo; conditions: 5-HT 0.25 mg/kg i.v. induced bradycardia, 30 min
Experimental: 5-HT3 antagonism can be determined for a compound by subjecting the compound to a Bezold-Jarisch Reflex test which is described and reported by Saxena, P.R., and Lawang, A.; Arch. Int.
The test compound is administered i.p. (mg/kg) to a group of 3 mice. Thirty minutes later a 5-HT (0.25 mg/kg i.v.) induced bradycardia is recorded in pentobarbital anesthetized animals.

rats = test: Rat gastric emptying of a test meal; format: in vivo, Male Charles River Rats, Crl: COBS, CD (SD) BR Strain; conditions: 30 min before test meal, 60 min after meal
Experimental: A test meal for measuring gastric emptying in rats was prepared. Ten grams of methylcellulose (2% solution=15 centipoises; Aldrich Chemical Company, Milwaukee, Wis.) was added to 200 ml of cold water and mixed at 20,000 rpm in a Waring blender to insure dispersion and hydration of the methylcellulose. In addition, two beef bouillon cubes (Wyler's, Columbus, Ohio) dissolved in 100 ml of warm water was added to the mixture, followed by 16 g of casein (Hammersten, Schwartz/Mann, Orangeburg, N.Y.), 8 g of powdered confectioners sugar and 8 g of cornstarch. The ingredients were mixed for two minutes at 20,000 rpm and the resultant test meal was refrigerated for 48 hours to allow trapped air to escape.
Male Charles River Rats, Crl: COBS, CD (SD) BR Strain, 180-200 g body weight, were used in groups of six animals. The animals were food deprived for 24 hours prior to the experiment with access to water ad libitum. The compounds to be evaluated were prepared in a 0.5% aqueous methylcellulose solution. If insoluble, the mixture was homogenized for two minutes at 5500 rpm using a Try-R-Stir-R. The compounds were injected intraperitoneally at a volume of 5 ml/kg, 30 minutes before the test meal, (3.0 ml/rat i.g.). Control animals received only the vehicle. Sixty minutes after the test meal, the rats were sacrificed by cervical dislocation. The stomachs were removed intact and weighed. The stomachs were kept opened, gently rinsed with tap water, blotted dry with paper towelling, and the empty stomach weighed. The difference between the weight of the full and empty stomach is indicative of the amount of meal remaining in the stomach. The amount of meal remaining in the stomach was subtracted from the weight of 3 ml of the test meal to determine the amount of food emptied from the stomach during the test. Weight of the test meal was determined by weighing three samples (3 ml) at the beginning and three samples at the end of each experiment and calculating the mean. The mean and standard error of the amount of meal emptied were calculated.

| Structure (SMILES) | % INHIBITION OF CISPLATIN EMESIS (beagle dogs; 0.3 mg/kg iv) | % INHIBITION OF CISPLATIN EMESIS (beagle dogs; 3.0 mg/kg iv) | RESPONSE INDEX (gastric antrum; 0.3 mg/kg iv) | RESPONSE INDEX (gastric antrum; 1.0 mg/kg iv) | RESPONSE INDEX (gastric antrum; 3.0 mg/kg iv) | % INHIBITION (5-HT3; 5.0 mg/kg ip) | % INHIBITION (5-HT3; 10.0 mg/kg ip) | % INCREASE IN GASTRIC EMPTYING (rats; 1.0 mg/kg ip) | % INCREASE IN GASTRIC EMPTYING (rats; 3.0 mg/kg ip) | % INCREASE IN GASTRIC EMPTYING (rats; 10.0 mg/kg ip) | % INHIBITION (5-HT3; 2.5 mg/kg ip) | % INHIBITION OF CISPLATIN EMESIS (beagle dogs; 1.0 mg/kg iv) | RESPONSE INDEX (gastric antrum; 0.1 mg/kg iv) | % INHIBITION OF CISPLATIN EMESIS (beagle dogs; .005 mg/kg iv) | % INHIBITION OF CISPLATIN EMESIS (beagle dogs; .05 mg/kg iv) |
| --- | --- | --- | --- | --- | --- | --- | --- | --- | --- | --- | --- | --- | --- | --- | --- |
| COc1cc(N)c(Cl)cc1C(=O)NC[C@@H]1CCN2CCC[C@@H]12 (relative stereo) [Example 5, cis-4-amino-5-chloro-N-[(hexahydro-1H-pyrrolizin-1-yl)methyl]-2-methoxybenzamide,dihydrochloride] | 27.0% | 95.5% | 0.37 | 0.49 | 0.58 | 47% | 85% | 2.5% | 9.4% | 15.8% | – | – | – | – | – |
| COc1cc(N)c(Cl)cc1C(=O)NC[C@H]1CCN2CCC[C@@H]12 (relative stereo) [Example 7, trans-4-amino-5-chloro-N-[(hexahydro-1H-pyrrolizin-1-yl)-methyl]-2-methoxybenzamide,dihydrochloride] | – | – | – | – | 0.40 | 61% | 86% | 3.1% | 0.9% | -6.9% | 55% | – | – | – | – |
| COc1cc(N)c(Cl)cc1C(=O)NC1CCN(CCCOc2ccc(F)cc2)CC1OC (centres unmarked) [Cisapride, cisapride] | -2.3% | – | 0.54 | 0.41 | – | 54% | 78% | 9.8% | 15.4% | 25.0% | 49% | 91.0% | 0.45 | – | – |
| CN1C2CCC1CC(OC(=O)c1c[nH]c3ccccc13)C2 (centres unmarked) [ICS 205-930] | – | – | – | – | – | – | – | – | – | – | – | – | – | 60.8% | 100.0% |
| CCN(CC)CCNC(=O)c1cc(Cl)c(N)cc1OC [Metoclopramide, metoclopramide] | 19.5% | 99.9% | – | 0.23 | 0.65 | – | 40% | 2.6% | 11.2% | 34.1% | – | – | – | – | – |

— US4992461A, “N-azabicyclo(3.3.0)octane amides of aromatic acids, compositions, and methods of use thereof” (G. D. Searle & Co., priority 1989, dated 1991)
